Laboratory results from US20120269815A1, “NEUROTROPHINS AND USES THEREOF” (Regents of the University of Minnesota, priority 2008, published 2012).
“Also recorded” adds a separate entry of the source. No end group written: not given here.

How the values were obtained:
[1] = molecular target: T1, p75^NTR (Homo sapiens, UniProt P08138); test: Fluorescence-labeled TUF1 peptide binding to COS7 cells expressing p75NTR; details: labeled peptide 5 nM, 90 min, COS7 cells transfected with pCMV-SPORT6-p75
T1 construct: host or cells: COS7
T1 sequence (P08138 29-427): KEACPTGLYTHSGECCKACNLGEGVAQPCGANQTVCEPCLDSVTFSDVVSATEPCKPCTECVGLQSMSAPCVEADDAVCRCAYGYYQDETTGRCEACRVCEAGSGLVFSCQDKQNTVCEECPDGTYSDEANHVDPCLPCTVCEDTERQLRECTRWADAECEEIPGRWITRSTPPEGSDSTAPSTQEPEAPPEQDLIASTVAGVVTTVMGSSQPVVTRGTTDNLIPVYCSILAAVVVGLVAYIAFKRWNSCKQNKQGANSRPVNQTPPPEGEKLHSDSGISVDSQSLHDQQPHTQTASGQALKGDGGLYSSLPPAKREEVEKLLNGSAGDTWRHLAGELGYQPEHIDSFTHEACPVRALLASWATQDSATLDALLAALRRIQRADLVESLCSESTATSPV
Protocol: (§1) COS7 cells were seeded at 10,000 cells/well onto a 18 mm coverslip in a 12-well plate. Cells were allowed to settle overnight in a cell culture incubator (NuAire NU-8600, NuAire, Inc., Plymouth, Minn.) set at 37° C. and 5% CO2. Cells were transfected with pCMV-eGFP (Clontech Laboratories, Inc., Mountain View, Calif.) or pCMV-SPORT6-p75 (ATCC) using Fugene HD (Roche Diagnostics Corp., Indianapolis, Ind.) and were incubated overnight. The binding assays were carried out according to Horton et al. with modifications. Synthetic TUF1 peptides (TUF1[43-54] (SEQ ID NO:1) and TUF1[24-40] (SEQ ID NO:3) were generated (via Sigma Genosys, Sigma-Aldrich Co. St. Louis, Mo.) and were conjugated per manufacturer's recommendation with DyLight 549 NHS Ester (Thermo Fisher Scientific, Waltham, Mass.), which have similar spectra to Cy3 dye. Unconjugated dye was removed with a dye removal column (Thermo Fisher Scientific, Waltham, Mass.). Labeled peptides were diluted to 5 nM in 0.15 M Sucrose/PBS and added (1.0 ml/well) to transfected COS7 cells. The binding reaction was incubated in the dark at room temperature for 90 minutes. Cells were rinsed thoroughly with PBS+0.05% Tween-20 to remove unbound peptide. Cells were then fixed with 4% Paraformaldehyde (5 minutes).
Following fixation, cells were permeabilized in PBS+0.1% Tween-20 for 10 minutes, rinsed thoroughly with PBS, and blocked in BSA (10 mg/ml) for 10 minutes. Cells were incubated with rabbit anti-p75^NTR antibody (1:10,000 dilution) for 30 minutes. Excess antibody was removed with PBS washes. Cells were then incubated with Alexa-488 goat anti-rabbit antibody (1:500 dilution, Invitrogen). Cells were again rinsed thoroughly with PBS and mounted in Vectashield mounting media plus DAPI (Vector Laboratories, Inc., Burlingame, Calif.).
COS7 cells were seeded at 10,000 cells/well onto an 18 mm coverslip in a 12-well plate. Cells were allowed to settle overnight in a cell culture incubator (NuAire NU-8600, NuAire, Inc., Plymouth, Minn.) set at 37° C. and 5% CO2. Cells were transfected with pCMV-eGFP (Clontech Laboratories, Inc., Burlingame, Calif.) or pCMV-SPORT6-p75 (ATCC) using Fugene HD (Roche Diagnostics Corp., Indianapolis, Ind.) and were incubated overnight. The binding assays were carried out according to Horton et al. with modifications. Synthetic TUF1 peptides (TUF1[43-54] (SEQ ID NO:1) and TUF1[24-40] (SEQ ID NO:3)) were generated (via Sigma Genosys, Sigma-Aldrich, St. Louis, Mo.) and were conjugated per manufacturer's recommendation with DyLight 549 NHS Ester (Thermo Fisher Scientific Inc., Waltham, Mass.), which have similar spectra to Cy3 dye. Unconjugated dye was removed with a dye removal column (Thermo Fisher Scientific Inc., Waltham, Mass.). Labeled peptides were diluted to 5 nM in 0.15M Sucrose/PBS and added (1.0 ml/well) to transfected COS7 cells. The binding reaction was incubated in the dark at room temperature for 90 min. Cells were rinsed thoroughly with PBS+0.05% Tween-20 to remove unbound peptide. Cells were then fixed with 4% Paraformaldehyde (5 minutes).
Following fixation, cells were permeabilized in PBS+0.1% Tween-20 for 10 minutes, rinsed thoroughly with PBS, and blocked in BSA (10 mg/ml) for 10 minutes. Cells were incubated with rabbit anti-p75^NTR antibody (1:10,000 dilution) for 30 minutes. Excess antibody was removed with PBS washes. Cells were then incubated with Alexa-488-goat anti-rabbit antibody (1:500 dilution, Invitrogen Corp., Carlsbad, Calif.). […]

[2] = tested on: COS7 cells; test: COS7 cell survival following serum deprivation (Trypan blue uptake); format: cell-based; details: 5 nM peptide
Protocol: To gain insight into the binding of TUF1[43-54] peptide and p75^NTR, serum deprivation was used as a stressor to COS7 cells transfected with pCMV-SPORT6-p75 expression vector. COS7 cells were seeded at 15,000 cells/well in 12-well plates, transfected with 300 ng pCMV-eGFP (control) or 300 ng pCMV-SPORT6-p75, and incubated overnight. Cells were then incubated in serum-free medium or serum-free medium supplemented with 5 nM TUF1[43-54]. Cells were assessed for Trypan blue dye uptake at 24, 48, and 72 hours.
Immediately after removing growth medium, cells were rinsed with PBS and incubated in 100 μl 0.4% Trypan blue dye diluted in PBS. Images of cells were captured at 10× magnification using an inverted microscope equipped with a CCD camera. Trypan blue-positive cells were counted using Adobe Photoshop CS3 (Adobe Systems Inc., San Jose, Calif.). Graphs and statistics were performed using Prism Graphpad 4.0 (GraphPad Software Inc., San Diego, Calif.).

[3] = tested on: unknown receptor expressed in COS7 cell; test: Fluorescence-labeled TUF1 peptide binding to control (pCMV-GFP) COS7 cells; details: labeled peptide 5 nM, COS7 cells transfected with pCMV-GFP
Protocol: as §1, with “minutes). […]” for “minutes).”

AYKSYVRALPLL [TUF1[43-54]] was tested, and the “binding to p75^NTR” value [1] was “binds more readily to p75 neurotrophic receptor”, the “binding to p75^NTR” value ([1]; listed as TUF1^43-54) was “found to bind the p75^NTR” and the “binding to p75^NTR” value ([1]; listed as TUF1 peptide) was “binds p75 receptor expressed in COS cells”. The “survival benefit of peptide in presence of p75^NTR” value ([2]; COS7 cells transfected with pCMV-SPORT6-p75, serum deprivation) was “removed the survival benefit”, the “cell survival / cell death following serum deprivation” value ([2]; Trypan blue-positive cells at 24, 48, 72 hours, control-transfected COS7 cells) was “promotes cell survival; also recorded: reduces in vitro cell death following serum deprivation” and the “binding to unknown receptor expressed in COS7 cell” value [3] was “binds to an unknown receptor expressed in COS7 cell at a low level”.
